Experimental data from paper PMC7969873 (Cell Reports, 2021).
Where two headings read alike, the source gives them in different places.

Tests used:
SARS-CoV-2 [1] = type: cell-based; conditions: 250 nM, Vero E6 cells, 48 h
[2] = HeLa-ACE2 uninfected host cell cytotoxicity counter screen; type: cell-based; conditions: human, uninfected HeLa-ACE2 cells; read-out: median cytotoxic concentration (CC50)
Procedure: Compounds were acoustically transferred into 1,536-well μclear plates (Greiner Part. No. 789091). HeLa-ACE2 cells were maintained as described for the infection assay and seeded in the assay-ready plates at 400 cells/well in DMEM with 2% FBS and plates were incubated for 24 hours at 37°C 5% CO2. To assess cell viability, the Image-iT DEAD green reagent (Thermo Fisher) was used according to manufacturer instructions. Cells were fixed with 4% paraformaldehyde, and counterstained with DAPI.

SARS-CoV-2 [3] = assay: microbe, parasite or virus in culture; type: cell-based; conditions: Severe acute respiratory syndrome coronavirus 2, A549-ACE2, 24 h, 24 h, read-out: IC50, SARS-CoV-2 immunostaining signal
SARS-CoV-2 [4] = conditions: HeLa-ACE2 cells
SARS-CoV-2 [5] = assay: microbe, parasite or virus in culture; type: cell-based; conditions: Severe acute respiratory syndrome coronavirus 2, Calu-3 cells, read-out: IC50, SARS-CoV-2 viral titer
SARS-CoV-2 [6] = assay: microbe, parasite or virus in culture; type: cell-based; conditions: for IC50: IFA, read-out: IC50, inhibition of SARS-CoV-2 infectivity
SARS-CoV-2 [7] = type: cell-based; conditions: hiPSC-CMs; 250 nM
hiPSC-CMs = assay: Cardiomyocyte beating / in vitro cardiotoxicity in hiPSC-CMs; type: cell-based, human; conditions: 250 nM
Procedure: Thus, we used the human-induced pluripotent stem-cell-derived cardiomyocyte (hiPSC-CM) system for antiviral drug testing against SARS-CoV-2. […] Thus, this cardiomyocyte system is useful for antiviral drug testing against SARS-CoV-2. […] The inhibition of virus production by berzosertib was evaluated by quantifying the infectious virus (TCID50) in the supernatant at various time points (Figure 2B). […] Infection of cardiomyocytes with SARS-CoV-2 was confirmed by specific staining of cardiac troponin T (cTnT) and viral spike proteins (Figure 2E). Untreated SARS-CoV-2-infected cells had infection-mediated cell injury with disrupted troponin T fibers.

SARS-CoV-2 [8] = assay: SARS-CoV-2 infection of HEK293-ACE2 cells (IFA); type: cell-based; conditions: 250 nM, pre-treated 24 hours, one day post-infection
[9] = Severe acute respiratory syndrome coronavirus 2, Vero C1008, Vero E6 cells

| Compound | antiviral activity (prevention of viral CPE) in primary screen (SARS-CoV-2 [1]) | further results |
| --- | --- | --- |
| Nc1ccc(C(=O)Nc2cccc(-c3nc(N4CCOCC4)c4oc5ncccc5c4n3)c2)cn1 [YM201636] | antiviral activity |  |
| CS(=O)(=O)N1CCc2c(-c3cnc(N)nc3)nc(N3CCOCC3)nc21 [CH5132799] | antiviral activity |  |
| NC(=O)c1ccc(N(C(N)=O)c2c(F)cccc2F)nc1-c1ccc(F)cc1F [VX-702] | antiviral activity |  |
| CO[C@H]1CC[C@H](N2C(=O)CNc3ncc(-c4ccc(C(C)(C)O)nc4)nc32)CC1 [CC-223, Onatasertib] | antiviral activity |  |
| CCC(CC)COC(=O)[C@H](C)N[P@](=O)(OC[C@H]1O[C@@](C#N)(c2ccc3c(N)ncnn23)[C@H](O)[C@@H]1O)Oc1ccccc1 [Remdesivir] |  | CC50 at 24 h [2]: > 10000 nM; IC50 (SARS-CoV-2 [3]): 160 nM; IC50 (SARS-CoV-2 [3]; A549-ACE2 cells, […]): 200 nM; median effective dose (ED50), percentage of infected cells (SARS-CoV-2 [4]): 124 nM; IC50 (SARS-CoV-2 [5]): 150 nM |
| CNC(=O)Nc1ccc(-c2nc(N3CC4CCC(C3)O4)c3cnn(C4CCC5(CC4)OCCO5)c3n2)cc1 [WYE-125132] | antiviral activity |  |
| FC(F)c1nc2ccccc2n1-c1nc(N2CCOCC2)nc(N2CCOCC2)n1 [ZSTK474] | antiviral activity |  |
| CS(=O)(=O)N1CCN(Cc2cc3nc(-c4cccc5[nH]ncc45)nc(N4CCOCC4)c3s2)CC1 [GDC-0941, Pictilisib] | antiviral activity |  |
| CN1CCN(Cc2ccc(-c3cnc4[nH]cc(-c5ccc6[nH]ccc6c5)c4c3)cc2)CC1 [URMC-099] | antiviral activity | IC50 (SARS-CoV-2 [6]; [9]): 50 to 125 nM |
| COc1cc2c(Nc3ccc(NC(=O)c4ccccc4)cc3)ncnc2cc1OCCCN1CCOCC1 [ZM 447439] | antiviral activity |  |
| Cc1ccc(C(=O)Nc2cccc(C(F)(F)F)c2)cc1Nc1nc(-c2cccnc2)nc2c1cnn2C [NVP-BHG712] | antiviral activity |  |
| O=C1NC(=O)/C(=C/c2ccc3c(c2)OC(F)(F)O3)S1 [AS-604850] | antiviral activity |  |
| CCCCCCCCCCCCCCCCCCOP(=O)([O-])OC1CC[N+](C)(C)CC1 [Perifosine] | antiviral activity |  |
| CC(=O)Nc1nc(C)c(-c2ccc(Cl)c(S(=O)(=O)NCCO)c2)s1 [PIK-93] | antiviral activity |  |
| Nc1ccc(-c2ccc3ncc4ccc(=O)n(-c5cccc(C(F)(F)F)c5)c4c3c2)cn1 [Torin 2] | antiviral activity | IC50 (SARS-CoV-2 [6]; Vero E6 cells): < 25 nM |
| COc1cc2ncnc(Oc3cccc(NC(=O)Nc4cc(C(C)(C)C(F)(F)F)on4)c3)c2cc1OC [CEP-32496] | antiviral activity |  |
| COc1cc2nccc(Oc3ccc(NC(=O)Nc4ccc(F)cc4F)c(F)c3)c2cc1OC [Ki8751] | antiviral activity |  |

| Compound | antiviral activity (prevention of viral CPE) in primary screen (SARS-CoV-2 [1]) | further results |
| --- | --- | --- |
| COc1ccc(-c2ccc3c(N4CCOC[C@@H]4C)nc(N4CCOC[C@@H]4C)nc3n2)cc1CO [AZD8055] | antiviral activity |  |
| C[C@H](Nc1ncnc2nc[nH]c12)c1cc2cccc(Cl)c2c(=O)n1-c1ccccc1 [IPI-145] | antiviral activity |  |
| N#C/C(=C/c1ccc(O)c(O)c1)C(=O)NCc1ccccc1 [AG-490] | antiviral activity |  |
| O=C1c2ccc(Nc3ccc(F)cc3F)cc2CCc2ccc(OC[C@H](O)CO)cc21 [Skepinone-L] | antiviral activity |  |
| Nc1ncnc2c1c(-c1cnc3[nH]ccc3c1)nn2C1CCCC1 [PP121] | antiviral activity |  |
| Cn1c(=O)n(-c2ccc(C(C)(C)C#N)cc2)c2c3cc(-c4cnc5ccccc5c4)ccc3ncc21 [Dactolisib] |  | virus production (infectious virus, TCID50, in supernatant) (SARS-CoV-2 [7]): inhibited viral production; IC50 (SARS-CoV-2 [6]; [9]): 111 nM; cardiomyocyte beating (beats per minute) (hiPSC-CMs; SARS-CoV-2-infected hiPSC-CMs): affected the cardiomyocyte functional beating; in vitro cardiotoxicity (hiPSC-CMs; hiPSC-CMs): had cardiotoxicity |
| CSc1cccc(Nc2ncc3cc(-c4c(Cl)cccc4Cl)c(=O)n(C)c3n2)c1 [PD173955] | antiviral activity |  |
| CNC(=O)c1cccc(-c2ccc3c(N4CCOC[C@@H]4C)nc(N4CCOC[C@@H]4C)nc3n2)c1 [AZD2014, Vistusertib] | antiviral activity | anti-viral activity in secondary screen (SARS-CoV-2 [8]): not exhibited potent anti-viral activity; IC50 (SARS-CoV-2 [6]; [9]): 34 nM; IC50 (SARS-CoV-2 [6]; Vero E6 cells): < 25 nM |
| CCS(=O)(=O)Nc1ccc2c(c1)/C(=C(/Nc1ccc(CN3CCCCC3)cc1)c1ccccc1)C(=O)N2 [Hesperadin] | antiviral activity |  |
| Cn1cc(-c2ccc3nnc(C(F)(F)c4ccc5ncccc5c4)n3n2)cn1 [JNJ-38877605] | antiviral activity |  |
| IFN-α |  | blocking of SARS-CoV-2 infection (IFA) (SARS-CoV-2 [6]; Vero E6 cells, 48 hpi, hydroxychloroquine and EIDD-2801 10 μM): effectively blocked |
| Cc1c(CN2CCN(C(=O)[C@H](C)O)CC2)sc2c(N3CCOCC3)nc(-c3cnc(N)nc3)nc12 [GDC-0980] | antiviral activity |  |
| O=c1ncn2nc(Sc3ccc(F)cc3F)ccc2c1-c1c(Cl)cccc1Cl [VX-745] | antiviral activity |  |
| Cc1cn(-c2cc(NC(=O)c3ccc(C)c(Nc4nccc(-c5cccnc5)n4)c3)cc(C(F)(F)F)c2)cn1 [Nilotinib] | antiviral activity | anti-viral activity in secondary screen (SARS-CoV-2 [8]): not exhibited potent anti-viral activity; IC50 (SARS-CoV-2 [6]; [9]): 50 to 125 nM |
| CC(C)(O)CNc1ncc(-c2ccnc(Nc3ccnc(Cl)c3)n2)c(CC2CC2)n1 [VPS34-IN1] | antiviral activity | IC50 (SARS-CoV-2 [6]; [9]): 50 to 125 nM |
| Cn1cc(C2=C(c3cn(C4CCN(Cc5ccccn5)CC4)c4ccccc34)C(=O)NC2=O)c2ccccc21 [Enzastaurin] | antiviral activity |  |
